System: C57BL/6 mice
Test: In vivo Luc mRNA delivery (IVIS luminescence imaging)
Set-up: species or system mouse
Settings: 0.1 mg kg-1 Luc mRNA, i.v., 6h; 20% to 50% cationic lipid
Procedure: C57BL/6 mice with weight at around 20 g were i.v. injected with various Luc mRNA formulations (0.1 mg kg^−1 of Luc mRNA, n=3 per group). After 6 hours, these mice were injected with D-Luciferin (150 mg kg^−1, intraperitoneal) and imaged immediately using an IVIS Lumina system (Perkin Elmer). Afterwards, these mice were killed, and tissues were excised for ex vivo imaging using IVIS Lumina system.

CCCCCCCC/C=C\CCCCCCCC(=O)OCC(C[N+](C)(C)C)OC(=O)CCCCCCC/C=C\CCCCCCCC (stereo not shown) [DOTAP, 1,2-dioleoyl-3-trimethylammonium-propane]
luciferase expression in mouse lungs, permanently cationic lipid screen in mDLNP-2: higher luminescence activity than others
